Source: ChEMBL document CHEMBL1201862, “PubChem BioAssay data set” (2004)
Activity calls are given as the source filed them.

Key:
[1] = molecular target: T1, Short transient receptor potential channel 4 (Mus musculus, UniProt Q9QUQ5); experiment: potentiation of DAMGO-evoked TRPC4 calcium signal – cell-based, HEK293 TRPC4/mu-opioid, Fluo-4 calcium, EC20 DAMGO, dose response (AID 434941); assay type: functional
T1 sequence (Q9QUQ5 whole entry): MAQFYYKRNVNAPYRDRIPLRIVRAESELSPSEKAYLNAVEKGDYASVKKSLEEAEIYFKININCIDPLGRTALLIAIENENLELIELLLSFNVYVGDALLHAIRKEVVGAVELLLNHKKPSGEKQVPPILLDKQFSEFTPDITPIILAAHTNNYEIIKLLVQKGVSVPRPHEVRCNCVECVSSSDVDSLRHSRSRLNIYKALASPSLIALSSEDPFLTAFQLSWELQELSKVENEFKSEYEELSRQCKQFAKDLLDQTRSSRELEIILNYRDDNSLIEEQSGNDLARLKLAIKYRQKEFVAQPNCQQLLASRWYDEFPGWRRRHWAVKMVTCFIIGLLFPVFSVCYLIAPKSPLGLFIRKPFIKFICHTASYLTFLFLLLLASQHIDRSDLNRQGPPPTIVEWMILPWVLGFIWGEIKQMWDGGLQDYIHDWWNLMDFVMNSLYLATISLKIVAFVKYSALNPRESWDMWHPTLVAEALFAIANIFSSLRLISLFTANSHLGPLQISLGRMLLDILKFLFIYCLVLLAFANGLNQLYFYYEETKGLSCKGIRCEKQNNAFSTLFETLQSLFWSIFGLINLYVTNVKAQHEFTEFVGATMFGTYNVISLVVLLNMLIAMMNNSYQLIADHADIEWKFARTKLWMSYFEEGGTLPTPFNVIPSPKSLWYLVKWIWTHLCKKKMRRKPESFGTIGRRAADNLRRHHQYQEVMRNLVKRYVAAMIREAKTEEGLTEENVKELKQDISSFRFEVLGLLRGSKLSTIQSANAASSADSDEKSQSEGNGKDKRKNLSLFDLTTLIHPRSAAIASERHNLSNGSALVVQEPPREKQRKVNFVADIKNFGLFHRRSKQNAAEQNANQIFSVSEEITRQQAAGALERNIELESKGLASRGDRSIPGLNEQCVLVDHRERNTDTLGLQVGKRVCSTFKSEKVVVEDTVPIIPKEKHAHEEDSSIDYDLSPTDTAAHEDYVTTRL

[2] = Vero E6 cell cytotoxicity, dose response, cytotoxicity control for non-replicating M. tuberculosis project, secondary assay (AID 492998); assay type: functional, VeroE6; settings: Vero C1008
[3] = THP-1 cell cytotoxicity, dose response, cytotoxicity control for non-replicating M. tuberculosis project (AID 489025); assay type: functional
[4] = HepG2 cell cytotoxicity, dose response, cytotoxicity control for non-replicating M. tuberculosis project (AID 489018); assay type: functional; settings: Mycobacterium tuberculosis
[5] = molecular target: T2, Eukaryotic translation initiation factor 2-alpha kinase 3 (Homo sapiens, UniProt Q9NZJ5); experiment: Dose response cell-based high-throughput screening assay to measure PERK inhibition. [Related pubchem assays: 1416 ]; assay type: functional
T2 sequence (Q9NZJ5 whole entry): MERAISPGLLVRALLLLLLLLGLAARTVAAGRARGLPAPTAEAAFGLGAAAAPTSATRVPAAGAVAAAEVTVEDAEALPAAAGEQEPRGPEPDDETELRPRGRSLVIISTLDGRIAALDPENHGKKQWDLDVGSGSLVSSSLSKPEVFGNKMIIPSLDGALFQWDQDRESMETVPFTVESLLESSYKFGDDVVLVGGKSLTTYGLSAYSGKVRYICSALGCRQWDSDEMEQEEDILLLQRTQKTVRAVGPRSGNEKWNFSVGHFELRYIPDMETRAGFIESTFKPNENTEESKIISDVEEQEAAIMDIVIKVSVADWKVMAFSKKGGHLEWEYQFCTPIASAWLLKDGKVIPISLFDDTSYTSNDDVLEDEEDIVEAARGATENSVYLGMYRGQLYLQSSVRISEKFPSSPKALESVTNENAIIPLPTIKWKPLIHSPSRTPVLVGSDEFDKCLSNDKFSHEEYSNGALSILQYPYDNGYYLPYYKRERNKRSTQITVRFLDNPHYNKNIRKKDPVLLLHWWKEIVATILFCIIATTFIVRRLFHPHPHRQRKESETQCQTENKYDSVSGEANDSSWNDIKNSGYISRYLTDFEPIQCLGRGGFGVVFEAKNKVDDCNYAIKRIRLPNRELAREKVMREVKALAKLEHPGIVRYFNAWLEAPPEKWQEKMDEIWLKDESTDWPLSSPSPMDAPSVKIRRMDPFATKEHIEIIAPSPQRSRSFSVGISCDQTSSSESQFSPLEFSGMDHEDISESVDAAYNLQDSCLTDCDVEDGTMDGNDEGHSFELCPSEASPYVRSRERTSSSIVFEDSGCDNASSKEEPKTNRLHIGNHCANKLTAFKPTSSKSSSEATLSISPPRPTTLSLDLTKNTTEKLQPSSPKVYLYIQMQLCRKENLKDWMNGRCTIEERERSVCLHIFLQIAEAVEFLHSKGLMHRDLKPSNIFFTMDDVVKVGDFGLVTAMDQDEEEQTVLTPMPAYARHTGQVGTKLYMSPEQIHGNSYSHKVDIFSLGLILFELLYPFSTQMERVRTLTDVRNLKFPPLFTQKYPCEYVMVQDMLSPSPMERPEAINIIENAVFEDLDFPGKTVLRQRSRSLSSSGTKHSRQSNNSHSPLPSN

[6] = molecular target: T2, Eukaryotic translation initiation factor 2-alpha kinase 3; experiment: Counterscreen assay for PERK inhibitors: Dose response cell-based high throughput screening assay to measure inhibition of PERK at 6 hours. [Related pubchem assays: 1522, 1416 ]; assay type: functional
[7] = molecular target: G-protein coupled receptor 55 (Homo sapiens, UniProt Q9Y2T6); experiment: selective activators of receptor GPR55 – imaging, U2OS cells, beta-arrestin-GFP redistribution, primary screen (AID 1961); assay type: functional
[8] = molecular target: Eukaryotic translation initiation factor 4H (Homo sapiens, UniProt Q15056); experiment: eIF4H binding inhibition – biochemical, uHTS, fluorescence polarization, translation initiation inhibitor project, primary screen (AID 2012)
[9] = molecular target: Polyadenylate-binding protein 1 (Homo sapiens, UniProt P11940); experiment: blockers of PABP interaction with poly(A) – biochemical, fluorescence polarization, […] (AID 2014)
[10] = viability loss of HPDE-C7K cells – cell-based, fluorescence, HTS, primary screen (AID 431); assay type: functional; settings: Homo sapiens
[11] = HPDE-C7 pancreatic duct cell viability loss – fluorescence, HTS (AID 430); assay type: functional, cell-based; settings: Homo sapiens
[12] = inhibition of ADAM10 peptide cleavage – biochemical, FRET peptide substrate, recombinant human ADAM10, selectivity assay for ADAM17 exosite inhibitor project, dose response (AID 743259);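 further: ADAM10 enzyme cleaving a FRET peptide substrate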
[13] = molecular target: Disintegrin and metalloproteinase domain-containing protein 17 (Homo sapiens, UniProt P78536); experiment: exosite inhibitors of ADAM17, dose response, biochemical (AID 743260)
[14] = molecular target: G-protein coupled receptor 35 (Homo sapiens, UniProt Q9HC97); experiment: inhibition of zaprinast-stimulated GPR35 beta-arrestin translocation – imaging, U2OS, beta-arrestin-GFP, zaprinast agonist, primary screen (AID 2058); assay type: functional;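 further: antagonist potency meaning inhibition of agonist-induced arrestin redistribution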
[15] = molecular target: Glyceraldehyde-3-phosphate dehydrogenase (Homo sapiens, UniProt P04406)
[16] = molecular target: T3, Tyrosine-protein phosphatase non-receptor type 7 (Homo sapiens, UniProt P35236); assay type: functional
T3 sequence (P35236 whole entry): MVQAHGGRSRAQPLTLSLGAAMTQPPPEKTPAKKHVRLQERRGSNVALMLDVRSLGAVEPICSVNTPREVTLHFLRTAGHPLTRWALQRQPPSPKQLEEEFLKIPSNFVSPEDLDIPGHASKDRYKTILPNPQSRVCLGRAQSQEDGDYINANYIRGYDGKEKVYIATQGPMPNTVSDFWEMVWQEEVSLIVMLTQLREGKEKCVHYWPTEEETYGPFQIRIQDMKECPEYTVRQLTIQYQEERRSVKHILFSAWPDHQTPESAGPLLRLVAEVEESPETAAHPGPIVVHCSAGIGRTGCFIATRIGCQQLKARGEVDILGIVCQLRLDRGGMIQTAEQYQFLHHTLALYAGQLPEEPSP

[17] = molecular target: T4, Dual specificity protein phosphatase 6 (Rattus norvegicus, UniProt Q64346)
T4 sequence (Q64346 whole entry): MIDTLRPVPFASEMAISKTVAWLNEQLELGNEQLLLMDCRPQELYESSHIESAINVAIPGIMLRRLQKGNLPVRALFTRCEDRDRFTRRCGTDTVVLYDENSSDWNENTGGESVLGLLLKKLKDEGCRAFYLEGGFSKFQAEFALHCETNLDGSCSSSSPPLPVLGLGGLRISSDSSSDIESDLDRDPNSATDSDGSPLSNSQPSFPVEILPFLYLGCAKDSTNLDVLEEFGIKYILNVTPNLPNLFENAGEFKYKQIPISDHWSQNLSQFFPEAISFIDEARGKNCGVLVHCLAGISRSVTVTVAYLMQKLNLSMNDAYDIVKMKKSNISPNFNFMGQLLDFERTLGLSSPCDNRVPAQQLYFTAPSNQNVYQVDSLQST

[18] = molecular target: T4, Dual specificity protein phosphatase 6; assay type: functional
[19] = HEK-293T cell viability reduction – luminescence, B-cell screen hits, cytotoxicity control for BCR NF-kB inhibitor project, dose response (AID 489021); assay type: functional, cell-based;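 further: HEK-293T cells carrying an NF-kB luciferase reporter; cells exposed to compound for about 14 hours before viability readout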
[20] = molecular target: DNA dC->dU-editing enzyme APOBEC-3A (Homo sapiens, UniProt P31941); experiment: A3A deaminase inhibition for selectivity – biochemical, dose response (AID 504722); assay type: functional
[21] = molecular target: DNA dC->dU-editing enzyme APOBEC-3G (Homo sapiens, UniProt Q9HC16); experiment: Dose Response confirmation of small molecule APOBEC3G DNA Deaminase Inhibitors via a fluorescence-based single-stranded DNA deaminase assay. [Related pubchem assays (depositor defined):AID493012, AID493028]; assay type: functional
[22] = molecular target: T3, Tyrosine-protein phosphatase non-receptor type 7; experiment: redox-active compounds inhibiting HePTP phosphatase – biochemical, fluorescence, mechanism study (AID 2068); assay type: functional
[23] = molecular target: T5, Rac GTPase-activating protein 1 (Homo sapiens, UniProt Q9H0H5); experiment: blockers of MgcRacGAP-driven Rac1 GTP hydrolysis – biochemical, ADP Hunter fluorescence, primary and confirmatory, confirmation (AID 624330); assay type: functional
T5 sequence (Q9H0H5 whole entry): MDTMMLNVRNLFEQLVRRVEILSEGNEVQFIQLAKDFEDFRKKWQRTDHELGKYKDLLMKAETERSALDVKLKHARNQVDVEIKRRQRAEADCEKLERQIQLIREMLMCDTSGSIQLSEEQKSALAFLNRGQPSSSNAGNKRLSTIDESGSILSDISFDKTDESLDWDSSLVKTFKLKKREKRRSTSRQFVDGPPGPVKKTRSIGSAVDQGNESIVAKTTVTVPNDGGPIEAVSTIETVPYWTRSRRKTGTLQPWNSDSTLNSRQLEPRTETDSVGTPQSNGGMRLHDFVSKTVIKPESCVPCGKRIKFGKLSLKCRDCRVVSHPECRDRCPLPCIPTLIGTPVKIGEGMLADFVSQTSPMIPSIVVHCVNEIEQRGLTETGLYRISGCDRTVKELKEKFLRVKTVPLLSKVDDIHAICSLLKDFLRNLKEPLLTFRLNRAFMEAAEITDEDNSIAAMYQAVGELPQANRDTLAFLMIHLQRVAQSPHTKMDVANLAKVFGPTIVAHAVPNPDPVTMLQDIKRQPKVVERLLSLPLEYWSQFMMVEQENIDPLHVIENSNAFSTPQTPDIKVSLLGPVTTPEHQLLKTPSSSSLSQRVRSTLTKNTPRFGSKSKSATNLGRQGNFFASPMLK

Sequence of G-protein coupled receptor 55 (Q9Y2T6 whole entry): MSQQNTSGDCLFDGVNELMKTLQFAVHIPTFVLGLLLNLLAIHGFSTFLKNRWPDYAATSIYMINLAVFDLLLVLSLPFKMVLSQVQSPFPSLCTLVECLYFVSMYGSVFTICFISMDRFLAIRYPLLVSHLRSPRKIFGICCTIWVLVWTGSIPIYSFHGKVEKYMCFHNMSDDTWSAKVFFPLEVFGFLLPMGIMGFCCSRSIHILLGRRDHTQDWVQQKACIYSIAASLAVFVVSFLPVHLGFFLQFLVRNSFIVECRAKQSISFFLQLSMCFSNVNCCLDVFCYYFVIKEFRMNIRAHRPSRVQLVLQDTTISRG
Sequence of DNA dC->dU-editing enzyme APOBEC-3G (Q9HC16 whole entry): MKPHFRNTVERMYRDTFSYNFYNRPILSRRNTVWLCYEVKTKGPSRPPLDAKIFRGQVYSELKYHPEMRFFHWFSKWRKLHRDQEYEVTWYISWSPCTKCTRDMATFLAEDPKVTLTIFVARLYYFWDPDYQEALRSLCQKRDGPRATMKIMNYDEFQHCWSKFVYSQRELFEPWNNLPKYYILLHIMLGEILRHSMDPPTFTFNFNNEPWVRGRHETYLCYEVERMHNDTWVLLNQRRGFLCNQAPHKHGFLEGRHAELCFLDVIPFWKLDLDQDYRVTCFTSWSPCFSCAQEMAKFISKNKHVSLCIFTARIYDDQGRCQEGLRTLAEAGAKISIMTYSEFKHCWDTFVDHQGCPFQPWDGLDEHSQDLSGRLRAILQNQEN
Sequence of DNA dC->dU-editing enzyme APOBEC-3A (P31941 whole entry): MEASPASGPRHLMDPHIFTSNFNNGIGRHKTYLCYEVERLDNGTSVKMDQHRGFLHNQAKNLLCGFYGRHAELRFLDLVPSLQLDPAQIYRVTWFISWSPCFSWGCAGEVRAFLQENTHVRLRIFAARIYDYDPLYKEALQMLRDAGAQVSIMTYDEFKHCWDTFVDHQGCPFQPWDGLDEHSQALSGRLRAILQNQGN
Sequence of Polyadenylate-binding protein 1 (P11940 whole entry): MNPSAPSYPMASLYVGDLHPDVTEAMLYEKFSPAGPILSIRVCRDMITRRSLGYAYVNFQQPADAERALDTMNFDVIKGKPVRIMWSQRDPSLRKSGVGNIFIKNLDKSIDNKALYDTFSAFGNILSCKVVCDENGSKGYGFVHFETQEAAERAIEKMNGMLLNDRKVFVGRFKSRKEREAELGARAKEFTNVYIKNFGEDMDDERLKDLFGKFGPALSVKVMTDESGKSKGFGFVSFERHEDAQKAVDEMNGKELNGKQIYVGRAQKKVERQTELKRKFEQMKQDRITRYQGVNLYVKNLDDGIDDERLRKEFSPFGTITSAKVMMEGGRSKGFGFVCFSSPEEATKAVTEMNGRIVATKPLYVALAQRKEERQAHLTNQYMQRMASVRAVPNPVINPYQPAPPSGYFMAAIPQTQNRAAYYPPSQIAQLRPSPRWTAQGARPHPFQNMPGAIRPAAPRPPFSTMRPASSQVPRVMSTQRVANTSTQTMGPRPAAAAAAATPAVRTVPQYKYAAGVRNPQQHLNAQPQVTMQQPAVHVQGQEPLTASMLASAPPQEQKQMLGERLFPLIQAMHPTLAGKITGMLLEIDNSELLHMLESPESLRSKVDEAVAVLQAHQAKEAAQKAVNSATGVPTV
Sequence of Disintegrin and metalloproteinase domain-containing protein 17 (P78536 whole entry, the tested form may be a part): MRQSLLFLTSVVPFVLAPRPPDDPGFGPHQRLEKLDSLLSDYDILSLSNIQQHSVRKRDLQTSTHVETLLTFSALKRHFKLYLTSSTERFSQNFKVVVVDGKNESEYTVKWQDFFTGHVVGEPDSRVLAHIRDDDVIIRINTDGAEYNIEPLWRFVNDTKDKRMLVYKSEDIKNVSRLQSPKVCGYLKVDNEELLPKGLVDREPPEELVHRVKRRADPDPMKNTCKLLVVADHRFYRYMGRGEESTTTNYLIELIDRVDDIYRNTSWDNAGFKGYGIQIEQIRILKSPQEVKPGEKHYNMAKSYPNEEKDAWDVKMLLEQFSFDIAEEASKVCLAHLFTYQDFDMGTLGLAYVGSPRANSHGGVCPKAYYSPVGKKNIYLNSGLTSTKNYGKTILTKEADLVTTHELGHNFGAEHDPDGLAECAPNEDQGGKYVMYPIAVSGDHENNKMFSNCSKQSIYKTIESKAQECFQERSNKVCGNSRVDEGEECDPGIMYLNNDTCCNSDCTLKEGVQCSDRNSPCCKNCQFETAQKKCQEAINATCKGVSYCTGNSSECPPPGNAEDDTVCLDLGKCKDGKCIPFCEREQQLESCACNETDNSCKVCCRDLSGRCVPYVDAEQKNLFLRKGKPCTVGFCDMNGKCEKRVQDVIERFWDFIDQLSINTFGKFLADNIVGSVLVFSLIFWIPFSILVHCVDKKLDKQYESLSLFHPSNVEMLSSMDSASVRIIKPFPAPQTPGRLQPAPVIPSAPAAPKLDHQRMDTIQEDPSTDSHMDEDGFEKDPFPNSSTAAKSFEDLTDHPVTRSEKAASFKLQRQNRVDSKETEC
Sequence of G-protein coupled receptor 35 (Q9HC97 whole entry): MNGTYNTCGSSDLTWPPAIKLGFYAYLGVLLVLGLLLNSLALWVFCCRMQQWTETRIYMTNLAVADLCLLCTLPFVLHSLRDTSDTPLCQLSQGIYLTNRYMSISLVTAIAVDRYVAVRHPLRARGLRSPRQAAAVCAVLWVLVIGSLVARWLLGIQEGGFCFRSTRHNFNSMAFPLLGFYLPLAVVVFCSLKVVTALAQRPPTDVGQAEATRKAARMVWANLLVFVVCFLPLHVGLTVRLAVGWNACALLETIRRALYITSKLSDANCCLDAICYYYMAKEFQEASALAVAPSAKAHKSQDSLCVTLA
Sequence of Glyceraldehyde-3-phosphate dehydrogenase (P04406 whole entry): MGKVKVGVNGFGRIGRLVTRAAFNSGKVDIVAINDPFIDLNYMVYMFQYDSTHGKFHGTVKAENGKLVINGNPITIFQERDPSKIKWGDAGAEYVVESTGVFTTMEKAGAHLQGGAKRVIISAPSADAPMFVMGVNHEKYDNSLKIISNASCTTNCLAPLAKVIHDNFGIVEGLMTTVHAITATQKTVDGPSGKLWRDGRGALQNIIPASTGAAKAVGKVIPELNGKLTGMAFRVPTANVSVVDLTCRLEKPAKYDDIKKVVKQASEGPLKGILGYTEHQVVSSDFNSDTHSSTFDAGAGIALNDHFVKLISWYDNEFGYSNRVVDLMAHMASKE

For `O=C(CCN1CCN(Cc2ccccc2)CC1)Nc1ccc(OCc2ccccc2)cc1`, the EC50 [1] was 0.13 µM (active).

In the case of `N#Cc1ccsc1NC(=O)c1ccc(Cl)c([N+](=O)[O-])c1`, the CC50 [2] is reported as 13.9 µM (active), the CC50 [3] is reported as 20.9 µM (active) and the CC50 [4] is reported as > 20 µM (active). The EC50 [5] was > 55.7 µM (not active) and the EC50 [6] was > 55.7 µM (not active).

In the case of `Cc1[nH]c2ccc(-c3nnc(SCC(=O)NCc4ccco4)n3Cc3ccccc3)cc2c1C`, the EC50 [7] is reported as 5.78 µM (active).

With `CCCC[N+]12C3C[C@H](C4[C@H](O)[C@]5(C[C@@H]41)c1ccccc1N(C)[C@@H]35)[C@H](CC)[C@H]2O` (some centres not stated) the IC50 [8] was > 100 µM (inactive) and the IC50 [9] was 5.27 µM (active).

In the case of `CCCCCCn1c(N2CCN(c3ccccc3)CC2)nc2c1c(=O)n(C)c(=O)n2C`, the EC50 [10] is reported as > 20 µM (not active), the EC50 [11] is reported as > 20 µM (not active) and the EC50 [1] is reported as 6.68 µM (active).

In the case of `Cc1nc(N2CCCCC2)c2c(C)c(C(=O)Nc3ccc4c(c3)OCCO4)sc2n1`, the IC50 [12] is reported as > 69.5 µM (inactive), the IC50 [13] is reported as > 69.5 µM (inactive) and the IC50 [14] is reported as 2.07 µM (active).

With `CCCCCCCCCCCCCCCCCCC=CCCCCCC(=O)O` the IC50 [15] was > 100 µM (not active), the IC50 [16] was 0.801 µM (active) and the IC50 [17] was > 100 µM (inactive). For the same compound, the IC50 [18] was > 100 µM (inactive).

With `CCC(CC)C(=O)Nc1ccc(Sc2ccc([N+](=O)[O-])cc2)cc1` the IC50 [19] was > 80 µM (inactive).

In the case of `CC1Cc2ccccc2N1S(=O)(=O)c1cnc(Cl)c(Cl)c1` (configuration not stated), the IC50 [19] is reported as > 80 µM (inactive).

For `CCn1c(S)nnc1CSc1nc2ccccc2s1`, the IC50 [20] was > 100 µM (inactive), the IC50 [21] was 3.73 µM (active) and the EC50 [7] was > 32 µM (inactive).

In the case of `COc1cc(C(=S)NCc2ccc(Cl)c(C)c2)ccc1O`, the IC50 [22] is reported as 3.06 µM (active) and the IC50 [18] is reported as > 100 µM (inactive).

For `CC1(C)CC2CC(C)(CN2C(=O)Nc2ccc3nc(-c4ccco4)c(-c4ccco4)nc3c2)C1` (configuration not stated), the IC50 [22] was 2.92 µM (active).

For `O=C(O)c1ccc(/C=N/n2cc(-c3ccccc3)nc2S)cc1`, the IC50 [20] was > 100 µM (inactive) and the IC50 [21] was 3.33 µM (active).

With `Cc1c(O)ccc2c3c(c(=O)oc12)CCCC3` the EC50 [5] was > 55.7 µM (not active), the EC50 [6] was > 55.7 µM (not active) and the IC50 [23] was 22.5 µM (active).
